Measured values reported in ChEMBL document CHEMBL3045753, “In silico ligand-based pharmacophore model generation for the identification of novel Pneumocystis carinii DHFR inhibitors” (Med Chem Res, 2013).

These compounds were tested against T1, Dihydrofolate reductase (Pneumocystis carinii, UniProt P16184) (assay: Inhibition of Pneumocystis carinii DHFR).
T1 sequence (P16184 whole entry): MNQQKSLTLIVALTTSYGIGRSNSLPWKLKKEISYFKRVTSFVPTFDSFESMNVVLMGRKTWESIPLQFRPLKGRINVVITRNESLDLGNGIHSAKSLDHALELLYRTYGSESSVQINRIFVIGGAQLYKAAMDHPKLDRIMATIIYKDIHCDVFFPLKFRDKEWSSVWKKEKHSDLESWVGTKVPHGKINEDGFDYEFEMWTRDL

| Compound | IC50 |
| --- | --- |
| CCc1nc(N)nc(N)c1-c1ccc(Cl)c(N(C)Cc2ccccc2)c1 | 1070 nM |
| COc1cc(C)c2c(OC3CCCCC3C(F)(F)F)c(OC)cc(NC(C)CCCN)c2n1 (stereo not given) | 711 nM |
| COc1cc(Cc2cnc(N)nc2N)cc(C#CCCC(=O)O)c1OC | 1000 nM |

The next compounds have a lower IC50 than those just listed; values first:

| IC50 | Compound |
| --- | --- |
| 170 nM | N=C(N)c1ccc(N2CCN(c3ccc(-c4nc5ccccc5[nH]4)cc3)CC2)cc1 |
| 620 nM | CCc1nc2nc(N)nc(N)c2nc1CC |
